Test results as given in publication PMC9266914, “Broad Spectrum Functional Activity of Structurally Related Monoanionic Au(III) Bis(Dithiolene) Complexes” (International Journal of Molecular Sciences, 2022).

Tests used:
[1] = molecular target: T1, thioredoxin reductase (TrxR) (Rattus norvegicus, UniProt O89049); assay: Thioredoxin reductase inhibition, colorimetric DTNB assay; type: biochemical; details: 0.1 nM–2 µM
T1 construct: purchased Sigma-Aldrich
T1 sequence (O89049 1-499): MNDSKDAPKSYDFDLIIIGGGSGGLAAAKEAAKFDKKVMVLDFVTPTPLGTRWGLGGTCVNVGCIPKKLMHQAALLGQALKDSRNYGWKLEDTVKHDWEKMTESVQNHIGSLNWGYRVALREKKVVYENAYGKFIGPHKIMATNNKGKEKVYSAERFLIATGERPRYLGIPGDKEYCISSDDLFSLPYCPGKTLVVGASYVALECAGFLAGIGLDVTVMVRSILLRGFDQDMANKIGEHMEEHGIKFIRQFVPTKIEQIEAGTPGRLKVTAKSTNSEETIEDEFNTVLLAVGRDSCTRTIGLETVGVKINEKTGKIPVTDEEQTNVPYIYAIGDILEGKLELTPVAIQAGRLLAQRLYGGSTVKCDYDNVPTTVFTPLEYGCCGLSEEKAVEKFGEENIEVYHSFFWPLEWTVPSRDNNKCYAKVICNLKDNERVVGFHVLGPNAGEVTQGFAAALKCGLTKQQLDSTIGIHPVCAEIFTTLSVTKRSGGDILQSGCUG
Procedure: The effect of the selected gold complexes on the activity of TrxR was evaluated by a colorimetric DTNB assay as previously described. […] The substituent on the nitrogen atom of the thiazoline ring ([P][AuSEt(=S)] vs. [P][AuSBu(=S)]) and the nature of the exocyclic atom ([P][AuSEt(=S)] vs. [P][AuSEt(=Se)]) seemed to influence the inhibitory effect on the enzyme. The exocyclic selenium atoms of [P][AuSEt(=Se)] seemed to disfavor the intermolecular interaction with the enzyme in relation with the peripheral thione group of [P][AuSEt(=S)].
The […] (TrxR) inhibition assays were performed using a commercial kit from Sigma-Aldrich, introducing minor modifications for a 96-well plate format. The assay is based on the reduction of DTNB (5,5′ dithiobis(2-nitrobenzoic acid)) into TNB (5-thio-2-nitrobenzoic acid) with the concomitant oxidation of NADPH, in a reaction catalyzed by TrxR [92]. The complexes were dissolved in DMSO to prepare serial concentrations in the range of 0.1 nM–2 µM. The reaction mixture (200 µL total volume) contained 11 μL assay buffer (phosphate buffer, pH 7.0 and 50 mM EDTA), 180 µL working buffer (phosphate buffer and 0.25 mM NADPH), 1 μL complexes’ solutions, 2 μL enzyme solution and 6 µL DTNB (0.1 M in DMSO). […] The formation of TNB was monitored at 412 nm with a plate spectrophotometer (Power Wave Xs, Bio-Tek).

[2] = test system: A2780 ovarian cancer cells; design: method as in PMID 32391537; details: 48 h incubation, MTT; starred values; read-out: IC50 A2780, 48 h; cited from earlier work

Structure (SMILES): CC(=O)OC[C@H]1O[C@@H]([S-])[C@H](OC(C)=O)[C@@H](OC(C)=O)[C@@H]1OC(C)=O.CCP(CC)CC.[Au+] [Auranofin, reference compound]
- IC50 [1]: 26 ± 10 nM
- IC50 [2]: 430 ± 270 nM
